Test results taken from patent publication US20230233515A1, “PHOTODYNAMIC ANTI-GRAM-POSITIVE BACTERIAL ACTIVITY OF PHARMACEUTICAL-GRADE ROSE BENGAL” (priority 2021, published 2023).
Values joined by “and” are separate entries in the source; they are usually repeats but may differ in a detail not shown here. Identical values can stand only once.

Key:
S.aureus BAA-44 = experiment: Time-kill kinetic assay; conditions: twice the RB MIC; fluorescent light
Procedure: (§3) Thus, the time-course experiments on these bacteria were conducted under the fluorescent light for 2 h (0-1,130 J/cm^2) at concentrations of about 2 to about 8-fold the MIC (RB). Reference molecules used were linezolid (10 µg/mL) and ciprofloxacin (10 µg/mL) for the Gram-positive bacteria and amikacin (10 µg/mL) and meropenem (10 µg/mL) for the Gram-negative bacterium.
(§4) Time-kill kinetics assay for antimicrobial agents was performed using CLSI guidelines with a minor modification. The multiple time points in time-kill kinetics assays for RB and the reference molecules were performed. The bacterial culture grown in the broth was diluted to a concentration between 1 × 10^8 and 5.0 × 10^9 CFU/mL.
(§5) A stock dilution of the antimicrobial test substance was prepared at approximately 2- to about 8-fold the MIC values. The test compounds were inoculated with equal volumes of the specified bacteria placed in a 96-well plate. The microtiter plates were incubated at 37° C. and duration (1-120 min) under the fluorescent light (conditions are summarized in the figure legend). An aliquot of the culture medium was taken from each well and a serial dilution was performed. The diluted culture was incubated at 37° C. and CFU/mL were counted.

[1] = at the therapeutic concentrations; cited from earlier work
[2] = Behaviour in water at stomach pH; assay type: physicochemical; conditions: water solution having the acidic pH value of the human stomach
From the text: For example, the highly acidic gastric environment (pH 1.5-2 in the fasted state; pH 3-6 in the fed state) rises rapidly to about pH 6 in the duodenum and increases along the small intestine to pH 7.4 at the terminal ileum. The pH value in the cecum drops just below pH 6 and again rises in the colon reaching pH 6.7 at the rectum [Hua, Front Pharmacol 11: Article 524 (April 2020)].

S.cerevisiae [3] = experiment: Minimal bactericidal concentration (MBC) assay
[4] = test system: three E.coli, two Pseudomonas aeruginosa, two Klebsiella pneumoniae, and two Acinetobacter baumannii strains; experiment: MIC, broth dilution; conditions: entries 31-39
Procedure: (§6) We have reinvestigated the bactericidal activity of pharmaceutical-grade of RB against a battery of Gram-positive and -negative aerobic bacteria including Mycobacterium spp. and a Saccharomyces sp. under different light sources (fluorescence, LED, and sun light) and in a dark condition. Fluorescent light used was 17W (1,647 lumens, 63.8 cm^2) and LED was a 9.5 W (800 lumens, 28.3 cm^2), specifics about which are discussed hereinafter.
(§7) Minimum inhibitory concentrations (MICs) were determined by broth dilution microplate alamar blue assay or by OD measurement. All compounds were stored in DMSO or saline (1 mg/100 µL concentration). This concentration was used as the stock solution for all MIC studies. Each compound from stock solution was placed in the first well of a sterile 96 well plate and a serial dilution was conducted with the culturing broth (total volume of 10 µL). The bacterial suspension at log phase (190 µL) was added to each well (total volume of 200 µL), and was incubated for 24 h at 37° C.

[5] = test system: Staphylococcus epidermidis; experiment: MIC, broth dilution; conditions: aerobic condition; entry 16
Procedure: as §6, §7

Streptococcus salivarius = experiment: MIC, broth dilution; conditions: entry 23
Procedure: as §6, §7

Gram-negative bacteria = experiment: MIC, broth dilution; assay type: cell-based; conditions: dark condition; all Gram-negative bacteria of Table 1, entries 31-47
From the text: (§1) All studies were done in triplicate. […] “g” = MIC was not determined.

Enterococcus faecalis = experiment: MIC, broth dilution; assay type: cell-based; conditions: drug-susceptible and drug-resistant incl. vancomycin-resistant strains; entries 17-21
From the text: as §1

Staphylococcus aureus = experiment: MIC, broth dilution; assay type: cell-based
From the text: as §1

Mycobacterium spp. = experiment: MIC, broth dilution; assay type: cell-based
From the text: as §1

[6] = test system: Gram-positive Bacillus spp.; experiment: MIC, broth dilution; assay type: cell-based; conditions: illumination; entries 1-3 of Table 1
From the text: as §1

Gram-positive bacteria = experiment: MIC, broth dilution; assay type: cell-based
From the text: as §1

[7] = test system: B.subtilis, B.cereus, and S.aureus; experiment: MIC, agar dilution; assay type: cell-based; conditions: fluorescent light; entries 1-4 in Table 2; read-out: MIC (growth inhibition), agar dilution
From the text: (§2) All studies were done in triplicate. […] MBC: minimum bactericidal concentrations (µg/mL).
We observed that under the illumination conditions the MIC values of RB determined by the agar dilution method are lower than those determined by the broth dilution method (Table 1).

S.cerevisiae [8] = experiment: Growth inhibition of yeast; assay type: cell-based; conditions: Saccharomyces cerevisiae; fluorescent light; read-out: concentration giving 50% growth inhibition
From the text: as §1, §2

S.aureus 71080 (VRS8) = experiment: Time-kill kinetic assay; conditions: twice the RB MIC; fluorescent light
Procedure: as §3, §4, §5

Streptococcus pneumoniae = experiment: MIC, broth dilution; conditions: entry 24
Procedure: as §6, §7

E.faecium NR-32065 = experiment: Time-kill kinetic assay; conditions: twice the RB MIC; fluorescent light
Procedure: as §3, §4, §5

[9] = test system: human epidermal keratinocytes (HEKa); experiment: Cytotoxicity assay with HEKa cells (stratified epithelium, H&E); conditions: fluorescent light
Procedure: In these studies, HEKa cells were differentiated to a stratified squamous epithelium via air-liquid interface; this type of epithelium can be applied as a physiological tissue to study epidermal necrolysis by the treatment of RB.
Cytotoxicity of PV-10 against Human Epidermal Keratinocytes (HEKa) were evaluated in a hanging cell culture insert in a 24-well plate. HEKa (4x10^5 cells/mL, 0.5 mL) cell suspension) was placed into the insert where the outside of the inserts was filled with EpiGRO™ Complete Culture Media (1.5 mL) [67]. The cell suspension was incubated at 37° C. overnight (about 18 hours).
The next day, without removing the original medium, an additional 0.5 mL of the medium was added to the inside of each insert and incubated at 37° C. for 2 days. High quality HEKa approached 100% confluence by the third day of submerged culture. On the 4th day, the media was gently aspirated from each insert. The skin cell cultures were maintained at the air/liquid interface.
The skin culture was incubated at 37° C. for an additional 10 days. During the 10-day incubation, the media was changed every other day and any bubbles were removed from beneath the insert membrane.
After 25 days of 3D skin culture, approximately 6 to 8 layers of live epithelium were produced. […]

a S.aureus strain = conditions: 19.5 µg/mL RB, 10 min visible light, light fluence dose 30 J/cm^2; cited from earlier work
B.cepacia UCB717 = experiment: Time-kill kinetic assay; conditions: fluorescent light
Procedure: as §3, §4, §5

S.aureus 6538™ = experiment: Time-kill kinetic assay; conditions: in 1 minute; 4.6 × 10^8 CFU; fluorescent light
Procedure: as §3, §4, §5

[10] = test system: air-exposed biofilms of S.aureus BAA-44™; experiment: Air-exposed biofilms on agar plate; assay type: cell-based, Staphylococcus aureus; conditions: for CFU/mL (Dilution 5.8 × 10^11): treated at 0 and 30 min, 1 h, 17W fluorescent light, counted after 24 h at 37° C.
Procedure: The data of Table 3, below, summarize the effect of RB on air-exposed biofilms of a MRSA, Saureus BAA-44™, under fluorescent light (17 W, 1 h, 0.57 KJ/cm^2). Spraying RB (5.0 µg/mL or 10 µg/mL solution, 250 µL (twice)) and fluorescent light exposure (for 1 h) eradicated significant viable bacteria in the biofilms with a 4-log reduction (determined at a dilution of 5.8×10^9).
The bacteria (about 1.0x10^4) were spread on an agar plate and incubated in an oven at 37° C. for 2 days. The air-exposed biofilms on an agar plate were treated with PV-10. After 1 h under fluorescent light (0.57 KJ/cm^2), saline (2 mL) was added to the agar surface. The bacterial suspension ([…]) was taken into a sterile tube, and serial dilutions were performed. The diluted sample ([…]) was spread on agar plates and incubated at 37° C. for 24 h CFU/mL were counted.

[11] = test system: Gram-positive and -negative bacteria; experiment: Time-kill kinetics, general statements
Procedure: as §4
A stock dilution of the antimicrobial test substance was prepared at approximately 2- to about 8-fold the MIC values. The test compounds were inoculated with equal volumes of the specified bacteria placed in a 96-well plate. The microtiter plates were incubated at 37° C. and duration (1-120 min) under the fluorescent light (conditions are summarized in the figure legend). An aliquot of the culture medium was taken from each well and a serial dilution was performed. The diluted culture was incubated at 37° C. and CFU/mL were counted. Bactericidal activity was defined as greater than 3 log-fold decrease in colony forming units [64].

Bacteroides fragilis = experiment: MIC, broth dilution; conditions: anaerobic Gram-negative bacterium
From the text: We have reinvestigated the bactericidal activity of pharmaceutical-grade of RB against a battery of Gram-positive and -negative aerobic bacteria including Mycobacterium spp. and a Saccharomyces sp. under different light sources (fluorescence, LED, and sun light) and in a dark condition. Fluorescent light used was 17W (1,647 lumens, 63.8 cm^2) and LED was a 9.5 W (800 lumens, 28.3 cm^2), specifics about which are discussed hereinafter. In the studies under sunlight through an architectural window, the 96-well plates were placed on the east side of the building (the BSL-2 lab on the 5th floor, College of Pharmacy, University of Tennessee Health Science Center, Memphis, TN, USA) and the growth inhibition studies were performed between 8 AM and 5 PM (on June 18th, 2021).
Minimum inhibitory concentrations (MICs) were determined by broth dilution microplate alamar blue assay or by OD measurement. All compounds were stored in DMSO or saline (1 mg/100 µL concentration). This concentration was used as the stock solution for all MIC studies. Each compound from stock solution was placed in the first well of a sterile 96 well plate and a serial dilution was conducted with the culturing broth (total volume of 10 µL). […] The absorbance of each well was also measured at 570 and 600 nm via UV-Vis.

[12] = test system: biofilms of S.aureus 71080 (VRS8); experiment: Anti-biofilm assay; assay type: cell-based, Staphylococcus aureus; conditions: fluorescent light
Procedure: Here, we examined efficacy of RB against biofilms of a drug-susceptible S.aureus 6508™, and drug-resistant S.aureus 71080 (VRS8) and E.faecium NR-32065 under the florescent light and dark conditions.
The biofilms were generated on 12-well plates by incubating each bacterium for five days. The planktonic bacteria in the culture media were gently removed, and fresh media were placed. […] An aliquot of each culture was diluted (x10,000 or x100,000) on agar plates at 37° C. for 24 h. CFU/mL was counted [47, 69].

## O=C([O-])c1c(Cl)c(Cl)c(Cl)c(Cl)c1-c1c2cc(I)c(=O)c(I)c-2oc2c(I)c([O-])c(I)cc12.[Na+].[Na+] [RB, 4,5,6,7-tetrachloro-2′,4′,5′,7′-tetraiodo-fluorescein]
S.aureus BAA-44
  time to kill: ≤ 2 min
[1]
  toxicological effects: does not have systemic toxicological effects, mutagenic potential, and female reproductive and development effects
[2]
  appearance of solution at acidic pH: rapid clouding of the admixture and clumping
S.cerevisiae [3]; dark condition
  concentration not killing the yeast: > 500 µg/mL
S.cerevisiae [3]; fluorescent light
  MBC (to kill >99% of the yeast): 400 µg/mL
[4]
  MIC: 50 µg/mL and > 100 µg/mL
[5]
  bactericidal activity: effectively killed
Streptococcus salivarius
  susceptibility to RB: susceptible
Gram-negative bacteria
  MIC: > 100 µg/mL
Enterococcus faecalis
  MIC (killing concentration): 0.39 to 0.78 µg/mL
Staphylococcus aureus; 7 methicillin-resistant S.aureus (MRSA) strains, fluorescent or LED light
  MIC (killing concentration): 0.78 to 3.1 µg/mL
Staphylococcus aureus; MIC standard strain, illumination, entry 4
  concentration required to kill >99% of bacteria: 1.6 µg/mL
Staphylococcus aureus; vancomycin-resistant S.aureus strains, either lighting condition
  MIC (killing concentration): below 1.0 µg/mL
Mycobacterium spp.; dark conditions
  killing concentration (MIC): 25000 to 50000 µg/mL
Mycobacterium spp.; illuminated conditions, 5 Mycobacterium spp., entries 25-29
  MIC: 12.5 to 25 µg/mL
Mycobacterium spp.; illumination conditions
  killing concentration (MIC): 12500 to 25000 µg/mL
[6]
  MIC (killing concentration): 0.39 to 0.78 µg/mL
Gram-positive bacteria; dark condition, all Gram-positive bacteria of entries 1-23
  MIC: 25 to 100 µg/mL
Gram-positive bacteria; under illumination conditions (fluorescent, LED), wide range of Gram-positive bacteria, entries 1-23 in Table 1
  MIC: 0.2 to 3.1 µg/mL
[7]
  MIC: 0.01 to 0.1 µg/mL
S.cerevisiae [8]
  IC50: 1.6 µg/mL
S.aureus 71080 (VRS8)
  time to kill: ≤ 2 min
Streptococcus pneumoniae
  susceptibility to RB: showed resistance
E.faecium NR-32065
  time to kill: ≤ 2 min
[9]; 200 µM, 1 h
  necrosis on the surface tissue: Some necrosis
[9]; 10 and 100 µM, 1 h exposure
  necrosis of the stratum corneum cells: did not cause necrosis
A S.aureus strain
  loss of viability: about 80%
B.cepacia UCB717; 2-times the MIC
  time required for a 5-log reduction: 40 minutes
B.cepacia UCB717; 4-times the MIC, in 5 minutes, 2.9 × 10^8 CFU
  log reduction of the bacteria: > 5 log
S.aureus 6538™
  log reduction of CFU: 6 log
[10]; first column, PV-10 5.0 µg/mL
  colonies counted (Dilution 5.8 × 10^11): 0 (0 colony)
  CFU/mL (Dilution 5.8 × 10^11): 0 (0 colony) CFU/mL
[10]; first column, PV-10 10 µg/mL
  colonies counted (Dilution 5.8 × 10^11): 0 (0 colony)
  CFU/mL (Dilution 5.8 × 10^11): 0 (0 colony) CFU/mL
[10]; second column, PV-10 5.0 µg/mL
  colonies counted (Dilution 5.8 × 10^11): 35 colonies
  CFU/mL (Dilution 5.8 × 10^11): 9.4 × 10^10 CFU/mL
[10]; second column, PV-10 10 µg/mL
  colonies counted (Dilution 5.8 × 10^11): 17 colonies
  CFU/mL (Dilution 5.8 × 10^11): 4.5 × 10^10 CFU/mL
[10]; spray 5.0 or 10 µg/mL solution, 250 µL twice, fluorescent light 1 h, dilution of 5.8×10^9
  log reduction of viable bacteria in air-exposed biofilms: 4 log
[11]; Gram-negative bacteria
  time to kill: 5 min
[11]; Gram-positive bacteria
  time to kill: 1 to 2 min
[11]; within 2 hours of contact, preliminary studies
  log reduction: 6 log
Bacteroides fragilis
  concentration tolerated: ≥ 100 µg/mL
[12]; 10.0 µg/mL
  biofilm, log reduction of viable bacteria: over 6 log
[12]; 30.0 µg/mL or higher
  CFU counted in biofilm: No CFU were counted
